According to the NIST ThermoML archive (doi:10.1021/acs.jced.5b00807):
Numbers after ± are expanded uncertainties.

Key:
[1] = DSC
[2] = Molar enthalpy of transition or fusion; details: Crystal 2; DSC

Row | SMILES | Triple point temperature ([1]; Crystal 1) [K] | Triple point temperature ([1]; Crystal 2) [K] | Molar enthalpy of transition or fusion [2] [kcal/mol] | Triple point temperature ([1]; Crystal) [K]
1 | CCCCCCCCCCCCCCCC[N+](C)(C)C.O=S(=O)([N-]S(=O)(=O)C(F)(F)F)C(F)(F)F | 335 ± 4 | 319 ± 4 | 7.03 ± 0.717 | 
2 | CC[N+](C)(C)C.O=S(=O)([N-]S(=O)(=O)C(F)(F)F)C(F)(F)F [ethyltrimethylammonium bis(trifluoromethylsulfonyl)imide] |  |  |  | 383 ± 4
3 | O=S(=O)([N-]S(=O)(=O)C(F)(F)F)C(F)(F)F.[Li+] [lithium bis((trifluoromethyl)sulfonyl)amide] | 508 ± 4 | 422 ± 4 | 2.84 ± 0.287 | 
4 | CCCC[N+](CCCC)(CCCC)CCCC.O=S(=O)([N-]S(=O)(=O)C(F)(F)F)C(F)(F)F [tetrabutylammonium bis[(trifluoromethyl)sulfonyl]imide] |  |  |  | 365 ± 4
